Holding throughout (assay): HTS ATP-utilizing enzyme assay, off-chip mobility-shift (Caliper HTS 250)
What all share (type): biochemical
Holding throughout (details): test compound 10 μM, kinase listed = active (greater than six-sigma from the mean activity of inactive compounds)

In one assay the target is MAPKAPK2 (Homo sapiens, UniProt P49137). In a few lines: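 Phosphorylation of a peptide substrate was quantified by Caliper mobility-shift separation of substrate and product after 2.5 h at 20-22 °C, with compounds tested at 10 μM. Inhibition was normalized to EDTA-quenched (100%) and DMSO (0%) controls; six-sigma thresholds flagged actives.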
The next assay addresses T1, NEK2 (Homo sapiens, UniProt P51955).
T1 sequence (P51955 1-445): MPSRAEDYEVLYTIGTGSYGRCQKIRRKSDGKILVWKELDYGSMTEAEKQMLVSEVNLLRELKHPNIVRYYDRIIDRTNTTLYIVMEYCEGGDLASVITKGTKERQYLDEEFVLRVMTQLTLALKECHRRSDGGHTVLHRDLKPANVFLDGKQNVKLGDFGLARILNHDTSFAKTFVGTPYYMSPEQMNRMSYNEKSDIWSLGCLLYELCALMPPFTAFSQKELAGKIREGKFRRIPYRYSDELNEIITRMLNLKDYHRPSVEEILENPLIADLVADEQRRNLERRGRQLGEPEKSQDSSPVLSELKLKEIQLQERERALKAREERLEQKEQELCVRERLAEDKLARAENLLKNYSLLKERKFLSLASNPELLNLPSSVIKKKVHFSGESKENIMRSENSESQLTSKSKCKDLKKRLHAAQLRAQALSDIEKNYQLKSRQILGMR
The source says:
(§1) The following procedures describe the reagent and plate preparation for a HTS of an ATP-utilizing enzyme, such as a protein kinase, run in an off-chip mobility-shift assay format. The following provides an HTS protocol for running a protein kinase HTS screen on a Caliper HTS 250 microfluidics system. The following parameters are dependent on the protein kinase used and can be determined by one skilled in the art as part of a typical assay development process. For example, the peptide substrate used can be identified from the current literature, by screening a peptide library of potential protein kinase substrates, or by other applicable means accepted in the field.
(§2) The following table provides typical screen assay parameters appropriate for a Caliper HTS 250 microfluidics system.
(§3) The reagents and buffers listed in the following table are generally applicable for developing and running an HTS screen on a human protein kinase using the Caliper HTS 250 system.
(§4) The following reagents were prepared using the previously described buffers.
(§5) A 2× Master Buffer solution was prepared by combining 200 mL of 1 M HEPES, pH 7.5, 2 mL of 10% Triton X-100, 20 mL of 10% BSA, and 778 mL of H2O.
(§6) A 2.5× Substrate Buffer solution was prepared by combining 177.408 mL of 2× Master Buffer, 0.887 mL of 1 mM peptide-X, and 176.521 mL of H2O.
(§7) A 1.55× Termination Buffer solution was prepared by combining 762.05 mL of 2× Master Buffer, 95.1 mL of 0.5 M EDTA, and 666.94 mL of H2O.
(§8) A TCB Buffer solution was prepared by combining 125 mL of 2× Master Buffer, 10 mL of 0.5 M EDTA, 6.25 mL of 4% coating reagent, 1.01 mL of 100% DMSO, and 107.74 mL H2O.
(§9) A Dye Trough solution was prepared by combining 0.5 μL of peptide-X, and 2,999.5 μL of IX Master Buffer.
(§10) A 1.06× Assay Buffer solution was prepared by combining 205.15 mL of 2× Master Buffer, and 181.92 mL of H2O.
(§11) Assays to determine the kinase inhibitory activity of compounds of the present disclosure were performed using a Caliper HTS 250 microfluidics device, Greiner U-bottom assay plates, a Multidrop for transfer of reagents, and Biomek FX (AMNCBM03) software. Initially, 2.4 μL of a 1 mM solution of a test compound in 100% DMSO was added to a well of the Greiner U-bottom plate. A single Greiner U-bottom plate having 24×16 wells could include multiple test compounds. Next, […] of 1.06× Assay Buffer was added to each well of the assay plate. Using the Biomek FX, 10 μL of 0.5 M EDTA was added by the span-8 to wells, indicated as 100% Control and 2.4 μL of 100% DMSO was added by the span-8 to wells, indicated as 0% Control. Using the Multidrop, 10 μL of 2.5× Enzyme Buffer, followed by 10 μL of 2.5× Substrate Buffer was added to each well of the assay plate. The total reaction volume in each well was 25 μL, and the concentration of the test compound was 10 μM. The assay plate was incubated for 2.5 hrs at 20° C. to 22° C. After the incubation period, using the Multidrop, 45 μL of 1.55× Termination Buffer was added to each well of the assay plate to stop the reaction. The inhibition of the ATP-utilizing enzyme, such as a particular protein kinase, was determined by measuring the ratio of the peptide substrate to phosphorylated product for each well of the assay plate using the Caliper HTS 250 system.
(§12) The use of six-sigma statistical limits represents a conservative method for declaring potential hits among targets. The six-sigma activity, as well as the mean population activity, can be different for each target enzyme. This method has an expected false positive rate, from an in-control measurement process, of one in one million.

In a further assay the target is T2, PRAK (Homo sapiens, UniProt Q8IW41).
T2 sequence (Q8IW41 1-473): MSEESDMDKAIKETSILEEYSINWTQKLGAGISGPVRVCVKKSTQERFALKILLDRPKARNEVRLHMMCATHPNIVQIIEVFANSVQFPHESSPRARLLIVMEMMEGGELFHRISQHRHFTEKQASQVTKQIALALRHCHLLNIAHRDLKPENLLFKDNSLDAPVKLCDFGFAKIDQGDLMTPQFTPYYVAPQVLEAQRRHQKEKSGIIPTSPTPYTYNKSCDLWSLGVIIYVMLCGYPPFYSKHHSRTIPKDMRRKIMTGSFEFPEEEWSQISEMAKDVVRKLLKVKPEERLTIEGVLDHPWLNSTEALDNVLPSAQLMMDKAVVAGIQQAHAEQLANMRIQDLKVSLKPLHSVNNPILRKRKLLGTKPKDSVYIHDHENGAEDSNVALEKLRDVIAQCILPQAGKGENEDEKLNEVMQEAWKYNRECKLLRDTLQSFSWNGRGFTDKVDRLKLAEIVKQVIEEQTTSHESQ
Description: as §1, §2, §3, §4, §5, §6, §7, §8, §9, §10, §11, §12

In another assay the target is C-TAK1 (Homo sapiens, UniProt P27448).
Description: as §1, §2, §3, §4, §5, §6, §7, §8, §9, §10, §11, §12

The target in a further assay is T3, DYRK2 (Homo sapiens, UniProt Q92630).
T3 sequence (Q92630 1-601): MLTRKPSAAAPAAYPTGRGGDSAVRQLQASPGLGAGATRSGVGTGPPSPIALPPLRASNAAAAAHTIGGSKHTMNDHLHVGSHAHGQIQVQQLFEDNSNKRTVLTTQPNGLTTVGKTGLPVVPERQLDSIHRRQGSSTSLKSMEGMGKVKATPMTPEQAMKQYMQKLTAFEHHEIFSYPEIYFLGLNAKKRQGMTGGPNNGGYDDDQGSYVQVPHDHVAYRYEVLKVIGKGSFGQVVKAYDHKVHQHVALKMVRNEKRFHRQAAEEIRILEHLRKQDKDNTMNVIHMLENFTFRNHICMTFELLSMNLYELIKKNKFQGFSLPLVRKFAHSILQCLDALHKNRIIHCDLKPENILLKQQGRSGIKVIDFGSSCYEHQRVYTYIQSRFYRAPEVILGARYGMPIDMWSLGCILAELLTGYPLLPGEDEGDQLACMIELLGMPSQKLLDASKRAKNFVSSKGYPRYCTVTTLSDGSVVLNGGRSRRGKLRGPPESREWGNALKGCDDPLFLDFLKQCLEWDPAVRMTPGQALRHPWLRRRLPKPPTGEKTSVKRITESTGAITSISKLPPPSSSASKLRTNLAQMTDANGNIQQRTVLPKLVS
Description: as §1, §2, §3, §4, §5, §6, §7, §8, §9, §10, §11, §12

For 15 compounds, Activity results are on record in patent US7452887B2, “Quinoline- and isoquinoline-based compounds exhibiting ATP-utilizing enzyme inhibitory activity, and compositions, and uses thereof” (Amphora Discovery Corporation, priority 2004, dated 2008).

MAPKAPK2, sequence (P49137 whole entry): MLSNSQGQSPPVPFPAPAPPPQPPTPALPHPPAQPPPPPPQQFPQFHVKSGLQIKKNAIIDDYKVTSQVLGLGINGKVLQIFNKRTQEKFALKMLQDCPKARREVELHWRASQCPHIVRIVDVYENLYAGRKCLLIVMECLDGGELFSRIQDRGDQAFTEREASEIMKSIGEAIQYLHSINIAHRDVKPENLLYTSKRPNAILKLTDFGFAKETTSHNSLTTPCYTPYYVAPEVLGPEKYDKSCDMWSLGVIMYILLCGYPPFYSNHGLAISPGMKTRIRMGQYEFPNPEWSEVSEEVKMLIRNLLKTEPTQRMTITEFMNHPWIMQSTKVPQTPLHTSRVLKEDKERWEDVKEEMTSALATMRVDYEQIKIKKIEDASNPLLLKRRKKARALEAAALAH
C-TAK1, sequence (P27448 whole entry): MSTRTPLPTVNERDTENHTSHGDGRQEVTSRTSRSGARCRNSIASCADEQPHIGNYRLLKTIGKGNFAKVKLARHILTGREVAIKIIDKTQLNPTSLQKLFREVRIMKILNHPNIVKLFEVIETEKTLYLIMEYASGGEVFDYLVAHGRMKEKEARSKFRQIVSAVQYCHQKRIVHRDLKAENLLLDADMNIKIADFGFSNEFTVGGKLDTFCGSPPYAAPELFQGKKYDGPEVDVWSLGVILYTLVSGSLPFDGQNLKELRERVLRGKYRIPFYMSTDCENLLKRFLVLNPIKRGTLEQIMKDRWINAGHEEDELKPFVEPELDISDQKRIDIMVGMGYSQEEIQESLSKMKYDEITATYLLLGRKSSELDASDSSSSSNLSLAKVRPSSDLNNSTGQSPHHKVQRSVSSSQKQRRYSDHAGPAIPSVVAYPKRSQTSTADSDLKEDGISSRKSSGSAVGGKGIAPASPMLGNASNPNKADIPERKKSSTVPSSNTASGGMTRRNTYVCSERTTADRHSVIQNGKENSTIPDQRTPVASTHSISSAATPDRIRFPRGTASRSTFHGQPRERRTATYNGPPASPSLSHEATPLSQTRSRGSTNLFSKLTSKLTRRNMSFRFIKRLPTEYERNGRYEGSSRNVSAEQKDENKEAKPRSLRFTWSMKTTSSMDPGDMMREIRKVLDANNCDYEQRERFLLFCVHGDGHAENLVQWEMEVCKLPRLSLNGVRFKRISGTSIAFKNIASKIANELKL

On to `CC(C)c1ccc(-c2ccc3nccc(Nc4ccc(N5CCN(C)CC5)cc4)c3c2)cc1` [6-(4-isopropylphenyl)-N-(4-(4-methylpiperazin-1-yl)phenyl)quinolin-4-amine], for which the Activity result at MAPKAPK2 was “MAPKAPK2”; on NEK2, “NEK2”; on PRAK, “PRAK”.
Taken in the same sequence, the figures for `Cc1ccc(-c2ccc3nccc(Nc4ccc(N5CCN(C)CC5)cc4)c3c2)cc1` [N-(4-(4-methylpiperazin-1-yl)phenyl)-6-p-tolylquinolin-4-amine] were “MAPKAPK2”, “NEK2” and “PRAK”.
On the same counts, the results for `CN1CCN(c2ccc(Nc3ccnc4ccc(-c5ccc(Cl)cc5Cl)cc34)cc2)CC1` [6-(2,4-dichlorophenyl)-N-(4-(4-methylpiperazin-1-yl)phenyl)quinolin-4-amine] are “MAPKAPK2”, “NEK2” and “PRAK”.
On to `Cc1cc(-c2ccc3nccc(Nc4ccc(N5CCN(C)CC5)cc4)c3c2)ccc1F` [6-(4-fluoro-3-methylphenyl)-N-(4-(4-methylpiperazin-1-yl)phenyl)quinolin-4-amine], for which the Activity entry on MAPKAPK2 is given as “MAPKAPK2”; on C-TAK1 it was “C-TAK1”; at NEK2 it was “NEK2”; on PRAK, “PRAK”.
For the compound `Cc1cccc(-c2ccc3nccc(Nc4ccc(N5CCN(C)CC5)cc4)c3c2)c1` [N-(4-(4-methylpiperazin-1-yl)phenyl)-6-m-tolylquinolin-4-amine], the Activity result on MAPKAPK2 is reported as “MAPKAPK2”; at NEK2, “NEK2”; on PRAK, “PRAK”.
In the case of `CN1CCN(c2ccc(Nc3ccnc4ccc(-c5cccc(-c6ccccc6)c5)cc34)cc2)CC1` [6-(biphenyl-3-yl)-N-(4-(4-methylpiperazin-1-yl)phenyl)quinolin-4-amine], the Activity entry on MAPKAPK2 is listed as “MAPKAPK2”; on C-TAK1, “C-TAK1”; on PRAK it was “PRAK”.
Turning to `CN1CCN(c2ccc(Nc3ccnc4ccc(-c5ccc(C#N)cc5)cc34)cc2)CC1` [4-(4-(4-(4-methylpiperazin-1-yl)phenylamino)quinolin-6-yl)benzonitrile], the Activity entry was “MAPKAPK2” on MAPKAPK2, “NEK2” at NEK2 and “PRAK” at PRAK.
On to `CCCCCc1ccc(-c2ccc3nccc(Nc4ccc(N5CCN(C)CC5)cc4)c3c2)cc1` [N-(4-(4-methylpiperazin-1-yl)phenyl)-6-(4-pentylphenyl)quinolin-4-amine], for which the Activity result at C-TAK1 is listed as “C-TAK1”; on PRAK, “PRAK”.
Take `CCSc1ccc(-c2ccc3nccc(Nc4ccc(N5CCN(C)CC5)cc4)c3c2)cc1` [6-(4-(ethylthio)phenyl)-N-(4-(4-methylpiperazin-1-yl)phenyl)quinolin-4-amine]: the Activity entry is listed as “MAPKAPK2” at MAPKAPK2, “C-TAK1” on C-TAK1, “NEK2” at NEK2 and “PRAK” at PRAK.
As for `Cc1cccc(-c2ccc3nccc(Nc4ccc(N5CCN(C)CC5)cc4)c3c2)c1C` [6-(2,3-dimethylphenyl)-N-(4-(4-methylpiperazin-1-yl)phenyl)quinolin-4-amine], the Activity entry is “MAPKAPK2” on MAPKAPK2, “NEK2” on NEK2 and “PRAK” on PRAK.
Taken in the same sequence, the figures for `CN1CCN(c2ccc(Nc3ccnc4ccc(-c5ccc(F)cc5F)cc34)cc2)CC1` [6-(2,4-difluorophenyl)-N-(4-(4-methylpiperazin-1-yl)phenyl)quinolin-4-amine] were “MAPKAPK2”, “NEK2” and “PRAK”.
As to `COc1ccc(-c2ccc3nccc(Nc4ccc(N5CCN(CCCO)CC5)cc4)c3c2)cc1` [3-(4-(4-(6-(4-methoxyphenyl)quinolin-4-ylamino)phenyl)piperazin-1-yl)propan-1-ol], the figures for the Activity entry on MAPKAPK2 and at DYRK2 were “MAPKAPK2” and “DYRK2”, respectively.
In the case of `CN1CCN(c2ccc(Nc3ccnc4ccc(-c5cc(F)ccc5F)cc34)cc2)CC1` [6-(2,5-difluorophenyl)-N-(4-(4-methylpiperazin-1-yl)phenyl)quinolin-4-amine], the Activity entry at MAPKAPK2 was “MAPKAPK2”; on NEK2 it was “NEK2”; on PRAK, “PRAK”.
Consider `CN1CCN(c2ccc(Nc3ccnc4ccc(-c5ccc(C6CCCCC6)cc5)cc34)cc2)CC1` [6-(4-cyclohexylphenyl)-N-(4-(4-methylpiperazin-1-yl)phenyl)quinolin-4-amine], for which the figures for the Activity result on MAPKAPK2 and on C-TAK1 were “MAPKAPK2” and “C-TAK1”, respectively.
In the case of `CN1CCN(c2ccc(Nc3ccnc4ccc(-c5ccc(Oc6ccccc6)cc5)cc34)cc2)CC1` [N-(4-(4-methylpiperazin-1-yl)phenyl)-6-(4-phenoxyphenyl)quinolin-4-amine], the Activity result is listed as “MAPKAPK2” on MAPKAPK2, “C-TAK1” on C-TAK1 and “PRAK” at PRAK.
